{"source": "patent US20180110762A1", "about": "“Compositions Methods for Treating Chronic Kidney Disease” (Merck Sharp & Dohme Corp, priority 2015, published 2018)", "key": {"[1]": {"molecular_target": "T1, Human recombinant integrin αvβ3 (Homo sapiens, UniProt P05106+P06756)", "T1 construct": "purchased R&D Systems", "T1 sequence (P06756 31-992 limits assumed)": "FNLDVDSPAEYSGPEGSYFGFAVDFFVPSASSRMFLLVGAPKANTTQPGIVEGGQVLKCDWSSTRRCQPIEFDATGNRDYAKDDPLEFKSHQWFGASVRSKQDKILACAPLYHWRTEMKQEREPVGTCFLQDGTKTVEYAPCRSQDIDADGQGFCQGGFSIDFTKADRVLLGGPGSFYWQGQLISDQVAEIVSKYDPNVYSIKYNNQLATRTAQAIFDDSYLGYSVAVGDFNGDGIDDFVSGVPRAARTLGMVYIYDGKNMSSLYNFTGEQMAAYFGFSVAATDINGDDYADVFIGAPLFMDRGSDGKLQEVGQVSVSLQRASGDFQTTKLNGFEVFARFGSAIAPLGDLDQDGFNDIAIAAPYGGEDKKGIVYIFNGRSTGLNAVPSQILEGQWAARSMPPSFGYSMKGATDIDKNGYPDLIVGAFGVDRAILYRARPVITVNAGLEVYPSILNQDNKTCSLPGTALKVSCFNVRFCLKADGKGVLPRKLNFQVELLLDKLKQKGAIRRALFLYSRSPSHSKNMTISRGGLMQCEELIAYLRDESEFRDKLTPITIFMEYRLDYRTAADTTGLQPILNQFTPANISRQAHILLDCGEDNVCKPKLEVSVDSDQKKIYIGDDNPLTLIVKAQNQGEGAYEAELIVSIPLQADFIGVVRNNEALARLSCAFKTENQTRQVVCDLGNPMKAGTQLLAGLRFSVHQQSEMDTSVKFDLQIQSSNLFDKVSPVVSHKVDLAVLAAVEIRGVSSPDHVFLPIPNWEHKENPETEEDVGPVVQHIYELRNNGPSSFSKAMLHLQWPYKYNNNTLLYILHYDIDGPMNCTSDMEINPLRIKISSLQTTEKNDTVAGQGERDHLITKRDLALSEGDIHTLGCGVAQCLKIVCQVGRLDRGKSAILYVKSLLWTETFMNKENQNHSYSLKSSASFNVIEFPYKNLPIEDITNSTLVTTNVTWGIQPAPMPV", "T1 sequence (P05106 27-718 limits assumed)": "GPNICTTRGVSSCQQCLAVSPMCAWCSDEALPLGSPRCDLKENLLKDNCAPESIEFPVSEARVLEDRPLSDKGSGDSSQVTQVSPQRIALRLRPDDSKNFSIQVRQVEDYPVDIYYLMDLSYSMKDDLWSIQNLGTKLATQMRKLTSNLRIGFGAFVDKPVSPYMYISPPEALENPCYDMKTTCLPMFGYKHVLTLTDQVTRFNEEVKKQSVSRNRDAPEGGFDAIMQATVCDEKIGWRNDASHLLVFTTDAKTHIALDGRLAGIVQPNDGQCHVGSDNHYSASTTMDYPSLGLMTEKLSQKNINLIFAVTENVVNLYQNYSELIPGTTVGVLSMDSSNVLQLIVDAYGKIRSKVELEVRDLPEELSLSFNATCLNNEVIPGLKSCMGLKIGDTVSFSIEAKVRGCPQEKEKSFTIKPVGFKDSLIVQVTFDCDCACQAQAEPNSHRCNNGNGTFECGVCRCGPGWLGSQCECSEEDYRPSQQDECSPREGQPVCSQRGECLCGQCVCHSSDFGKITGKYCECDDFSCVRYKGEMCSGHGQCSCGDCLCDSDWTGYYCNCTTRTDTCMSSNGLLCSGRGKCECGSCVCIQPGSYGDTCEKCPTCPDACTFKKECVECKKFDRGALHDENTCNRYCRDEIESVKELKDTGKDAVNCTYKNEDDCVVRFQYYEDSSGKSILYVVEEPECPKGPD", "experiment": "Solid phase receptor assay, αvβ3 (vitronectin)", "assay_type": "binding", "experimental": "The assay was performed according to the method described in International Patent Publication WO 2014/015054 A1 “Beta Amino Acid Derivatives As Integrin Antagonists.” Briefly, 96-well plates were coated overnight with purified fibronectin or vitronectin (R&D Systems) in TBS+ buffer (25 mM Tris 7.4, 137 mM NaCl, 2.7 mM KCl, 1 mM CaCl2, 1 mM MgCl2, 1 mM MnCl2). Compound A was added at different concentrations to recombinant human integrin proteins (R&D Systems) reconstituted in TBS+/0.1% bovine serum albumin, and 50 μL of this mixture were added to the empty wells of the coated plate and incubated for 1-2 hours. After 3 washes, 50 μL of biotinylated antibody (R&D Systems) in TBS+/0.1% bovine serum albumin were added. The procedure continued with three more washes, addition of 50 μL of streptavidin-conjugated horseradish peroxidase (R&D Systems), and incubation for 20 minutes. After 3 more washes, 50 μL of tetramethylbenzidine (TMB) substrate (SIGMA) were added and plates were read after 20 min by colorimetric detection at 650 nm wavelength in an EnVision Multilabel Plate Reader (Perkin Elmer). The concentrations of fibronectin used were: 2 μg/mL for the α5β1 assay and 5 μg/mL for the αvβ1 assay. The concentrations of vitronectin used were: 1 μg/mL for the αvβ3 assay and 0.25 μg/mL for the αvβ5 assay. […]"}, "[2]": {"molecular_target": "T2, Human recombinant integrin α5β1 (Homo sapiens, UniProt P05556+P08648)", "T2 construct": "purchased R&D Systems", "T2 sequence (P08648 42-995 limits assumed)": "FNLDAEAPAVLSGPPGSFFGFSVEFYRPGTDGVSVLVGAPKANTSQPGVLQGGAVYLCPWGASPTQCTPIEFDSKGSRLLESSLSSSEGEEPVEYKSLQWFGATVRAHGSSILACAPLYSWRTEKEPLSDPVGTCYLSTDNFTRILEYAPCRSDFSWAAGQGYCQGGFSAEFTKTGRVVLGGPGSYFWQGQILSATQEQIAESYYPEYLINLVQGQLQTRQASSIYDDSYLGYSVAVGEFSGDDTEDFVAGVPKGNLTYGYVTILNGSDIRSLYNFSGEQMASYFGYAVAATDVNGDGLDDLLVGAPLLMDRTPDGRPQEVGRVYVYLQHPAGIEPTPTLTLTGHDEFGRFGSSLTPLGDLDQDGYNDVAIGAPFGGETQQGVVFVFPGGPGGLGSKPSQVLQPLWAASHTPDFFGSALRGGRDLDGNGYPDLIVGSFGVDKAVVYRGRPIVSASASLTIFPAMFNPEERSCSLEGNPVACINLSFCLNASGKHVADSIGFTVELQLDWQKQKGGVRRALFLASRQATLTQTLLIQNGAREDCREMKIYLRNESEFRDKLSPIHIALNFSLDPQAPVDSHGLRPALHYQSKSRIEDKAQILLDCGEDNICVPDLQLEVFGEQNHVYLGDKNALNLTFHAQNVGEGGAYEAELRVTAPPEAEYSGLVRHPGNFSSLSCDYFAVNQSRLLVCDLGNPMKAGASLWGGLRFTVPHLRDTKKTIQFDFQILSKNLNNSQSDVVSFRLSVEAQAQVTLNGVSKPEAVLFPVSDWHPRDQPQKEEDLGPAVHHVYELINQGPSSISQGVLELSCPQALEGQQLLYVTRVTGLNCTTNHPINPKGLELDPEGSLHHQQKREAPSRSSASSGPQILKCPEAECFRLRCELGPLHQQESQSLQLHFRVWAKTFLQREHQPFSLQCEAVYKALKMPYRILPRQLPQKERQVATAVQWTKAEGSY", "T2 sequence (P05556 21-728 limits assumed)": "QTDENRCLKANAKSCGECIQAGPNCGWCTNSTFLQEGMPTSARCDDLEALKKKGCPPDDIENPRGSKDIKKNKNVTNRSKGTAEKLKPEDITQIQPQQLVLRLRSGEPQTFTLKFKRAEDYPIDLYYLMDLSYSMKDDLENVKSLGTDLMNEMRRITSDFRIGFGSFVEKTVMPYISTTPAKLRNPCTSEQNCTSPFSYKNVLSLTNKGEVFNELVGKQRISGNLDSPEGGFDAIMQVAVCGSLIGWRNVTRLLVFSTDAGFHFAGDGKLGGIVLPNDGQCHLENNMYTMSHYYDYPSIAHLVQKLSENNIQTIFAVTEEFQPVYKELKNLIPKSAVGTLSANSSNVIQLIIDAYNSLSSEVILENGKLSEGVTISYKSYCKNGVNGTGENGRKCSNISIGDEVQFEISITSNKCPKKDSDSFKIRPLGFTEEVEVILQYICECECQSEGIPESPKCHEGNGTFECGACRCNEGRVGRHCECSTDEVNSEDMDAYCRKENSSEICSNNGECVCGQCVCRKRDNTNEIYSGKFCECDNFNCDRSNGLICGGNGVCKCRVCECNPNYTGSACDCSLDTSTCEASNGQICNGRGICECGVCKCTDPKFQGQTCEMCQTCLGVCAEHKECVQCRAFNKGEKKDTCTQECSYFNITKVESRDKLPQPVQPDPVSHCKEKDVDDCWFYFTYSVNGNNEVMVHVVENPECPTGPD", "experiment": "Thermal shift assay (differential scanning fluorimetry), α5β1", "assay_type": "binding", "conditions": "α5β1, 20 μM Compound A", "experimental": "Differential scanning fluorimetry was performed on a LightCycler 480 II, real-time PCR instrument (Roche Diagnostics). Human recombinant integrins from R&D Systems (αvβ1, αvβ3 and α5β1) were reconstituted at a concentration of […] in assay buffer (20 mM HEPES, pH=7.3, 100 mM NaCl, 1 mM MgCl2, 1 mM MnCl2) and diluted in assay buffer with Sypro orange (SIGMA) to a final concentration of 400 nM integrin and 5× Sypro orange. A volume of 4.9 μL of this mixture of protein and dye was transferred to a 384-well plate and 100 nL of DMSO or Compound A, dissolved in DMSO, were added using an Echo 555 instrument (Labcyte). The final concentration of Compound A in the assay was 20 μM. After mixing, the assay plate was sealed, spun at 1,000×g for two minutes, and subsequently heated from 25 to 99° C. over the course of 31 min in the LightCycler 480 II instrument. Fluorescence intensity was measured using excitation/emission wavelengths of 465 and 580 nm, respectively. Changes in protein thermal stability (ΔTm) upon compound binding were analyzed by using LightCycler 480 (software provided by the manufacturer)."}, "[3]": {"test_system": "male obese ZSF1 rats (diabetic nephropathy model)", "experiment": "ZSF1 rat study: GFR measurement by FITC-sinistrin clearance", "assay_type": "in vivo", "experimental": "The effects of Compound A (“A”) on renal function, plasma triglycerides, plasma cholesterol, kidney collagen I, kidney collagen III, renal histology, glomerular filtration rate, fibrosis score, and mRNA gene expression (profibrotic genes and integrin β3) were evaluated in male obese ZSF1 rats (a hybrid F1 of Zucker diabetic fatty rat and spontaneously hypertensive heart failure rat; a diabetic nephropathy model) when administered as in-feed for 28 weeks. Sixty obese male ZSF1 rats were randomized to five groups: Obese control (n=12), Compound A 60 mpk (n=12), Compound A 200 mpk (n=12), Compound A 400 mpk (n=12), Enalapril 10 mpk (n=12); Eight lean male ZSF1 rats were used for normal control. Renal functional changes were monitored by blood and urine analysis following in-feed dosing for 28 weeks. Compound exposure was also monitored during the study.\nFor the measurement of GFR, a miniaturized device (NIC-Kidney, Mannheim Pharma & Diagnostics, Mannheim, Germany) was used. In brief, the device (batteries, diodes, and microprocessor) containing an optical component was affixed on a depilated region of the back using a double-sided sticky patch (Lohmann GmbH KG, 56567, Neuwied, Germany) under isofluorane anesthesia (3% isoflurane mixed with oxygen). After a resting baseline period of 1-1.5 minutes, a bolus of FITC-sinistrin (5 mg/100 g body weight, dissolved in 0.5 mL sterile isotonic saline) was injected through the tail vein. The rat was then placed in a clean cage for recovery from anesthesia to responsible ambulation. […] The excretion kinetics of FITC-sinistrin was determined using a sampling rate of 60 measurements per minute with an excitation time of 10 milliseconds per measurement for 120 minutes after the injection. One compartment model was used for FITC-sinistrin clearance. After completion of GFR measurement, the device was gently removed from the skin and the rat returned to its home cage."}, "[4]": {"conditions": "obese ZSF1 rats, 200 mpk in-feed, week 28"}, "[5]": {"conditions": "obese ZSF1 rats, 400 mpk in-feed, week 28"}}, "data": [{"molecule": "COc1ccc([C@H](CC(=O)O)N2CCN(CCCc3ccc4c(n3)NCCC4)C2=O)cn1", "note": "[Compound A, 3-{2-Oxo-3-[3-(5,6,7,8-tetrahydro-[1,8]naphthyridin-2-yl)-propyl]imidazolidin-1-yl}-3 (S)-(6-methoxy-pyridin-3-yl)-propionic acid]", "values": [{"measurement": "IC50", "setting": "[1]; αvβ3, first of two experiments", "value": 5.2, "unit": "nM"}, {"measurement": "IC50", "setting": "[1]; αvβ3, second of two experiments", "value": 0.33, "unit": "nM"}, {"measurement": "ΔTm at 20 µM", "setting": "[2]; first of two experiments", "value": 8.1, "unit": "°C"}, {"measurement": "ΔTm at 20 µM", "setting": "[2]; second of two experiments", "value": 14, "unit": "°C"}, {"measurement": "effect on glomerular filtration rate", "setting": "[3]; 60 mpk, 200 mpk and 400 mpk at weeks 28-30", "value": "no significant effect"}, {"measurement": "Glomerular Filtration Rate", "setting": "[3]; ZSF-1 rats vs untreated obese ZSF-1 rats (summary)", "value": "non-statistically significant improvements in glomerular filtration rate"}, {"measurement": "Glomerular Filtration Rate", "setting": "[3]; obese ZSF1 rats, 60 mpk in-feed, week 28", "value": "609.8 ± 42.1", "unit": "uLs/Min/100 gm BW"}, {"measurement": "FITC-sinistrin clearance, % change of improvement compared to Obese Vehicle group", "setting": "[3]; [4]", "value": 8.8, "unit": "%"}, {"measurement": "Glomerular Filtration Rate", "setting": "[3]; [4]", "value": "663.2 ± 50.6", "unit": "uLs/Min/100 gm BW"}, {"measurement": "FITC-sinistrin clearance, % change of improvement compared to Obese Vehicle group", "setting": "[3]; [5]", "value": 14.4, "unit": "%"}, {"measurement": "Glomerular Filtration Rate", "setting": "[3]; [5]", "value": "697.5 ± 37.9", "unit": "uLs/Min/100 gm BW"}]}]}
